Legend:
[1] = molecular target: Cytochrome P450 2C9 (Homo sapiens, UniProt P11712); experiment: Activity of human recombinant CYP2C9 expressed in microsomes isolated from human AHH-1 cells assessed as enzyme-mediated (3-methyl-4-(2-(piperazin-1-yl)phenylthio)phenyl)methanol formation at 8 to 50 uM after 120 mins by HPLC/MS-MS analysis in presence of NADPH regenerating system with NADP+; format: ADME, cell-free; details: 2 h
[2] = molecular target: T1, Cytochrome P450 2A6 (Homo sapiens, UniProt P11509); experiment: Activity of human recombinant CYP2A6 expressed in microsomes isolated from human AHH-1 cells assessed as enzyme-mediated 1-(2-(2,4-dimethylphenylsulfinyl)phenyl)piperazine formation at 8 to 50 uM after 120 mins by HPLC/MS-MS analysis in presence of NADPH regenerating system with NADP+; format: ADME, cell-free; details: 2 h
T1 sequence (P11509 whole entry): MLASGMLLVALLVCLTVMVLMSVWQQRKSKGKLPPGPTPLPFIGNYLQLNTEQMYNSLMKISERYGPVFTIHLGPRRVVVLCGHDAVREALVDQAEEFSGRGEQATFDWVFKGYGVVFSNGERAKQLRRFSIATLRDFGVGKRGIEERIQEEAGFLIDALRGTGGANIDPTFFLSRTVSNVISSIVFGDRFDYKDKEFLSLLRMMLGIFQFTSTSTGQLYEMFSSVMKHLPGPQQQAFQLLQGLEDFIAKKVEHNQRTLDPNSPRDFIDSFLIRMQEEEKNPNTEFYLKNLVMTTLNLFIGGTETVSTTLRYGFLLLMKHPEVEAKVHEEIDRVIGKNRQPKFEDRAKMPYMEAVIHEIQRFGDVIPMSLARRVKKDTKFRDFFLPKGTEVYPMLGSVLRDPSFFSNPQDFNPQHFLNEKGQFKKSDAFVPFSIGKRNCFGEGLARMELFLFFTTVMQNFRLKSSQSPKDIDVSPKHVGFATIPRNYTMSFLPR

[3] = system: Liver microsome; experiment: Drug metabolism in pooled human liver microsomes assessed as formation of 4-(2-(2,4-dimethylphenylthio)phenyl)piperazin-1-ol after 30 mins by Michaelis-Menten plot analysis in presence of NADPH regenerating system with NADP+; format: ADME; details: 0.5 h, read-out: Km(app)
[4] = molecular target: T2, Cytochrome P450 3A4 (Homo sapiens, UniProt P08684); experiment: Activity of human recombinant CYP3A4 expressed in microsomes isolated from human AHH-1 cells assessed as enzyme-mediated 3-(2,4-dimethylphenylthio)-4-(piperazin-1-yl)phenol formation at 8 to 50 uM after 120 mins by HPLC/MS-MS analysis in presence of NADPH regenerating system with NADP+; format: ADME, cell-free; details: 2 h
T2 sequence (P08684 whole entry): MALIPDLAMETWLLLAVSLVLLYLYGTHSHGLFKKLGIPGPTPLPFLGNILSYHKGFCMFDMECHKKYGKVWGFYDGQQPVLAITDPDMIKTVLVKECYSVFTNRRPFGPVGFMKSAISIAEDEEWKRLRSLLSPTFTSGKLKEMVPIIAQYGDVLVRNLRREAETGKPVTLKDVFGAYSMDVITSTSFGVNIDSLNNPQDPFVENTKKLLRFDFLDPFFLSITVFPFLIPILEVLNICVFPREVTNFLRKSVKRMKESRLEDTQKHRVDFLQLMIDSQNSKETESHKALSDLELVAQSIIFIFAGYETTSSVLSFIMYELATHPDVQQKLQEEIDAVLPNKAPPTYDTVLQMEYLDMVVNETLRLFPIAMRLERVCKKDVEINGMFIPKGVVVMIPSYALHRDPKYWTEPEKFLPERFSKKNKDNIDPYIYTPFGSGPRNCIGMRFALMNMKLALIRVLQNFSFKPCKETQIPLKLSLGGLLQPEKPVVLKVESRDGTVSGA

[5] = molecular target: Cytochrome P450 2D6 (Homo sapiens, UniProt P10635); experiment: Activity of human recombinant CYP2D6 expressed in microsomes isolated from human AHH-1 cells assessed as enzyme-mediated 3-methyl-4-(2-(piperazin-1-yl)phenylthio)benzoic acid formation at 8 to 50 uM after 120 mins by HPLC/MS-MS analysis in presence of NADPH regenerating system with NADP+; format: ADME, cell-free; details: 2 h
Sequence of Cytochrome P450 2D6 (P10635 whole entry): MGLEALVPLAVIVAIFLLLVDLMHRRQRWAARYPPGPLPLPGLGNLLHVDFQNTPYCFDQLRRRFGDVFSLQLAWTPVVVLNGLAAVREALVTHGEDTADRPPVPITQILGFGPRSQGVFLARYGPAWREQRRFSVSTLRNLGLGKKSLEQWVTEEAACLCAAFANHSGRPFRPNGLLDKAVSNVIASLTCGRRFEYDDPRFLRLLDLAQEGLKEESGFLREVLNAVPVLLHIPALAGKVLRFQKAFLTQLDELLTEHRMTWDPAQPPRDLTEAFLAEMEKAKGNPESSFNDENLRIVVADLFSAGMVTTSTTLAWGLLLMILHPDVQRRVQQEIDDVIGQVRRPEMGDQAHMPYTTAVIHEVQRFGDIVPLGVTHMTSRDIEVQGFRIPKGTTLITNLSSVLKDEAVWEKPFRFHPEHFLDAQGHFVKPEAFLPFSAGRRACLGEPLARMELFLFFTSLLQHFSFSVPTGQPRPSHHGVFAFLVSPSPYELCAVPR

[6] = molecular target: T1, Cytochrome P450 2A6; experiment: Activity of human recombinant CYP2A6 expressed in microsomes isolated from human AHH-1 cells assessed as enzyme-mediated 3-(2,4-dimethylphenylthio)-4-(piperazin-1-yl)phenol formation at 8 to 50 uM after 120 mins by HPLC/MS-MS analysis in presence of NADPH regenerating system with NADP+; format: ADME, cell-free; details: 2 h
[7] = system: Liver microsome; experiment: Drug metabolism in pooled human liver microsomes at 100 uM after 30 to 180 mins by HPLC/MS-MS analysis in absence of NADPH regenerating system with NADP+; format: ADME
[8] = system: Liver microsome; experiment: Drug metabolism in pooled human liver microsomes assessed as formation of (3-methyl-4-(2-(piperazin-1-yl)phenylthio)phenyl)methanol per mg of protein after 30 mins by Michaelis-Menten plot analysis in presence of NADPH regenerating system with NADP+; format: ADME; details: 0.5 h
[9] = system: Liver microsome; experiment: Drug metabolism in pooled human liver microsomes assessed as formation of 1-(2-(2,4-dimethylphenylsulfinyl)phenyl)piperazine after 30 mins by Michaelis-Menten plot analysis in presence of NADPH regenerating system with NADP+; format: ADME; details: 0.5 h, read-out: Km(app)
[10] = molecular target: T3, Cytochrome P450 2B6 (Homo sapiens, UniProt P20813); experiment: Activity of human recombinant CYP2B6 expressed in microsomes isolated from human AHH-1 cells assessed as enzyme-mediated 4-(2-(2,4-dimethylphenylthio)phenyl)piperazin-1-ol formation at 8 to 50 uM after 120 mins by HPLC/MS-MS analysis in presence of NADPH regenerating system with NADP+; format: ADME, cell-free; details: 2 h
T3 sequence (P20813 whole entry): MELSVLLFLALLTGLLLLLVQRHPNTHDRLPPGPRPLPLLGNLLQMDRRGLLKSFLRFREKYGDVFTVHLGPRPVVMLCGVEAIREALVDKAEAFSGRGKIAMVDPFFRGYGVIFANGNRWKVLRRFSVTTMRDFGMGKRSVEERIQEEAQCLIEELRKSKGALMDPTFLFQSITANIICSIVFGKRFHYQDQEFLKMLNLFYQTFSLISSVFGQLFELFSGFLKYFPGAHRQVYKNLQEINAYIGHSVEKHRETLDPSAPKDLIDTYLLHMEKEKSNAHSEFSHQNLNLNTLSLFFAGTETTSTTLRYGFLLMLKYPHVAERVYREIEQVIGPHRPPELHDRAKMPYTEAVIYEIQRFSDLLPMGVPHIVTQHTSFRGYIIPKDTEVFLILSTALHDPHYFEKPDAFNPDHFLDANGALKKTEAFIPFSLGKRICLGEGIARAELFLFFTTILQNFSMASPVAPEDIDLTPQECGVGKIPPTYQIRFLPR

[11] = molecular target: Cytochrome P450 2E1 (Homo sapiens, UniProt P05181); experiment: Activity of human recombinant CYP2E1 expressed in microsomes isolated from human AHH-1 cells assessed as enzyme-mediated 1-(2-(2,4-dimethylphenylsulfinyl)phenyl)piperazine formation at 8 to 50 uM after 120 mins by HPLC/MS-MS analysis in presence of NADPH regenerating system with NADP+; format: ADME, cell-free; details: 2 h
Sequence of Cytochrome P450 2E1 (P05181 whole entry): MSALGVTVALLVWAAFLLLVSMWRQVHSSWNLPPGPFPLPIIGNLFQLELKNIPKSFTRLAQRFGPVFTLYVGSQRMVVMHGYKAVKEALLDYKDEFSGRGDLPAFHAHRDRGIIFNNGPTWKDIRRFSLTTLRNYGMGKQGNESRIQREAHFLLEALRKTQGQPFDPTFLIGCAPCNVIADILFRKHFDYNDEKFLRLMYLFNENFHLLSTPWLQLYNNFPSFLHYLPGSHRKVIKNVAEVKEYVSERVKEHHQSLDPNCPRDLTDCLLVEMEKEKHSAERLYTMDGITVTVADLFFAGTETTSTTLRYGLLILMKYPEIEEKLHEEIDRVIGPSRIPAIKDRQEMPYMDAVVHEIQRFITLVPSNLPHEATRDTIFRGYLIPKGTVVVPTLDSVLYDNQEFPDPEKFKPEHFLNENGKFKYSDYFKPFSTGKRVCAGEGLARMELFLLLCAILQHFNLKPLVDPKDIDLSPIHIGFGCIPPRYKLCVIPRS

[12] = system: Liver microsome; experiment: Drug metabolism in pooled human liver microsomes assessed as formation of 3-(2,4-dimethylphenylthio)-4-(piperazin-1-yl)phenol at 100 uM after 30 to 180 mins by HPLC/MS-MS analysis in presence of NADPH regenerating system with NADP+; format: ADME
[13] = molecular target: T2, Cytochrome P450 3A4; experiment: Activity of human recombinant CYP3A4 expressed in microsomes isolated from human AHH-1 cells assessed as enzyme-mediated 1-(2-(2,4-dimethylphenylsulfinyl)phenyl)piperazine formation at 8 to 50 uM after 120 mins by HPLC/MS-MS analysis in presence of NADPH regenerating system with NADP+; format: ADME, cell-free; details: 2 h
[14] = system: Liver microsome; experiment: Drug metabolism in pooled human liver microsomes assessed as formation of 3-(2,4-dimethylphenylthio)-4-(piperazin-1-yl)phenol after 30 mins by Michaelis-Menten plot analysis in presence of NADPH regenerating system with NADP+; format: ADME; details: 0.5 h, read-out: Km(app)
[15] = molecular target: T3, Cytochrome P450 2B6; experiment: Activity of human recombinant CYP2B6 expressed in microsomes isolated from human AHH-1 cells assessed as enzyme-mediated 3-(2,4-dimethylphenylthio)-4-(piperazin-1-yl)phenol formation at 8 to 50 uM after 120 mins by HPLC/MS-MS analysis in presence of NADPH regenerating system with NADP+; format: ADME, cell-free; details: 2 h

Sequence of Cytochrome P450 2C9 (P11712 whole entry): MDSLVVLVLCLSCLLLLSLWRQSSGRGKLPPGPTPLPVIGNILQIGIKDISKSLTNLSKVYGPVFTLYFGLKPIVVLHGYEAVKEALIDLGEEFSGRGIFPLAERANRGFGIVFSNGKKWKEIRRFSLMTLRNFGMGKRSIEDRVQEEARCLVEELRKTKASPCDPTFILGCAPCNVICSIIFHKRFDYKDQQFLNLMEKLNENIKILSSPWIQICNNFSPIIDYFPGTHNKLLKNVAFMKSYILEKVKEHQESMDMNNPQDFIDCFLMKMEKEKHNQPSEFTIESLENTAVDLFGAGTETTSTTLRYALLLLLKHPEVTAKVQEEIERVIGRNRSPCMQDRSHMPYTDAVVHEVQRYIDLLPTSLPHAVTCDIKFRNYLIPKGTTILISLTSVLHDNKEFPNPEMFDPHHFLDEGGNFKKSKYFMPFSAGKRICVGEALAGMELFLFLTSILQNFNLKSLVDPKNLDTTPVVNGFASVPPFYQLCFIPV

Drug metabolism [1]: metabolite_detected
Drug metabolism [2]: metabolite_detected
Km [3]: 300 µM
Drug metabolism [4]: metabolite_not_detected
Drug metabolism [5]: metabolite_detected
Drug metabolism [6]: metabolite_not_detected
Drug metabolism [7]: metabolite_not_detected
Vmax(app) [8]: 262 pmol/min
Km [9]: ≥ 208 µM
Drug metabolism [10]: metabolite_detected
Drug metabolism [11]: metabolite_not_detected
Drug metabolism [12]: metabolite_detected
Drug metabolism [13]: metabolite_detected
Km [14]: 323 µM
Drug metabolism [15]: metabolite_not_detected
Compound: Br.Cc1ccc(Sc2ccccc2N2CCNCC2)c(C)c1 [VORTIOXETINE HYDROBROMIDE]

Reference: ChEMBL document CHEMBL3525899, “Identification of the cytochrome P450 and other enzymes involved in the in vitro oxidative metabolism of a novel antidepressant, Lu AA21004” (Drug Metab Dispos, 2012)
